Source: US20060167229A1, “Biologically active peptide conjugates” (priority 2002, published 2006)
Marks after values point to notes of the source that are not given here. Ends that are not written are not given here.

Assays:
[1] = Body weight of rats on high nutrition diet (over-feeding obesity model); format: in vivo, Sprague-Dawley (SD) rats
Protocol: Healthy rats were fed with high nutrition diet for 5 weeks, with or without simultaneous peptide treatment (intramuscular 300 μg/kg/day). Rats on an ordinary diet with saline injection were used as negative control. After 5 weeks of treatment, injection was stopped and the same diet was maintained for another three weeks. Body weight data was collected at once per week interval. Behaviour of the rats was also observed. […] It is concluded that CMS015 at suitable dosage level can reversibly control obesity development induced by over-feeding.
Sprague-Dawley (SD) rats, weighing 145±10 g, were supplied by the Center of Experimental Animal of Guangzhou University of Traditional Chinese Medicine, PR China (certificate No.: 2000A019). Peptides were custom synthesized (of L-amino acids origin) by American Peptide Company, Inc., USA, and were diluted to 10 μg/ml in normal saline. The high and normal nutrition diets were prepared in compliance with the guideline for pre-clinical research of anti-obesity drug, issued by SDA (State Drug Administration), PR China^[1].
Healthy rats were randomized into the experiment, positive control, and negative control groups. 10 rats per group, half male and half female. The experiment group of rats was fed with high nutrition diet for 5 weeks with simultaneous intramuscular injection of 300 μg/kg/day peptide, once per day. Positive control group received the same high nutrition diet but placebo saline injection, while negative control group, used to proof successful establishment of obesity model, received normal nutrition diet and placebo saline injection. After 5 weeks treatment, injection was stopped and the same diet was maintained for another 3 weeks. The rats were weighed at once per week interval. Behaviour of the rats was also observed.
The data were presented as mean±standard deviation. Paired t test or single-factor ANOVA was used for inter and intra group comparison. Statistical significance cut-off was at P≦0.05.

[2] = system: Duck Hepatitis B Virus (DHBV); experiment: Chongqing duck hepatitis B model, serum DHBV DNA by dot-blot hybridization; format: in vivo, Chongqing ducks
Protocol: Chongqing duck hepatitis B model was set up and treated with peptides by intraperitoneal injection (50 μg/kg/day, once per day) for 4 weeks. The serum level of DHBV DNA was analyzed by serum dot-blot hybridization. Lamivudine and normal saline treatment was used as positive and negative control respectively. […] It is concluded that CMS001 at suitable dosage level can be used as a part, or on its own, for viral hepatitis infection management. One-day old Chongqing ducks were inoculated with 0.1 ml stock serum positive of Duck Hepatitis B Virus (DHBV) DNA (5×10^7 copy/ml) by intraperitoneal injection. One week later, blood samples were collected from the external jugular vein and infection was confirmed by dot-blot hybridization with DHBV DNA probe labeled with digoxin^[2]. The ducks were breed to 2 weeks old for entrance into the study. […] Treatment lasted for 4 weeks and observation continued for another one week after termination of treatment. 1 ml blood samples were drawn from the external jugular vein of the ducks on days 0, 7, 14, 21, 28, and 35 when treatment started. Sera of the blood samples were isolated immediately^[3] and stored at −20° C. until analysis. 4. Serum DHBV DNA Level Determinations DHBV DNA probe was fluorescent labeled according to the labeling kit protocol from the kit manufacturer (Amersham Pharmacia Biotech Co.). 40 μl duck sera were dot-blotted (1 duplicated dot per sample) onto nitro-cellulose membrane and hybridized with fluorescent-labeled DHBV DNA probe for quantitation^[2]. After completion of hybridization, the blots were developed in CDP-Star fluorimetry reagent RPN3690 and scanned with Vuego Scan (Brisa-620st) scanner. ImageMaster TotalLab v1.11.Ink software was used for quantitative analysis of the blots. Statistical analysis was carried out according to the pair t-test with SPSS software.

Pro Ser Ile Vat Gly Arg Pro Arg His Gln Gly Val Met (PSIVGRPRHQGVM; listed as Sus scrofa) [CMS015]
difference of the treatment and control groups upon termination of peptide treatment ([1]; 300 μg/kg/day i.m. for 5 weeks, then 3 weeks same diet without injection): gradually reduced and became statistically insignificant after three weeks
body weight ([1]; Female n = 5, Pre-treatment, positive control 133.6 ± 4.6): 129.2 ± 3.3 g
body weight ([1]; Female, Week 1, 300 μg/kg/day i.m., high nutrition diet, positive control 164.4 ± 8.7): 157.8 ± 8.3 g
body weight ([1]; Female, Week 2, 300 μg/kg/day i.m., high nutrition diet, positive control 188.0 ± 6.4): 176.0 ± 11.2 g
body weight ([1]; Female, Week 3, 300 μg/kg/day i.m., high nutrition diet, positive control 208.8 ± 8.2): 196.0 ± 10.5 g
body weight ([1]; Female, Week 4, 300 μg/kg/day i.m., high nutrition diet, positive control 227.2 ± 8.2): 212.0 ± 13.5 g
body weight ([1]; Female, Week 5, 300 μg/kg/day i.m., high nutrition diet, positive control 236.6 ± 10.9): 221.4 ± 13.2 g
body weight ([1]; Female, Week 6 (injection stopped after week 5), positive control 249.4 ± 16.3): 235.6 ± 16.3 g
body weight ([1]; Female, Week 7 (injection stopped after week 5), positive control 261.2 ± 13.4): 242.2 ± 18.8 g
body weight ([1]; Female, Week 8 (injection stopped after week 5), positive control 255.6 ± 11.5): 252.8 ± 22.5 g
body weight ([1]; Male n = 5, Pre-treatment, positive control 145.6 ± 13.6): 145.6 ± 8.5 g
body weight ([1]; Male, Week 1, 300 μg/kg/day i.m., high nutrition diet, positive control 194.4 ± 14.5): 183.8 ± 10.6 g
body weight ([1]; Male, Week 2, 300 μg/kg/day i.m., high nutrition diet, positive control 239.6 ± 13.4): 220.6 ± 12.2 g
body weight ([1]; Male, Week 3, 300 μg/kg/day i.m., high nutrition diet, positive control 265.0 ± 11.8): 239.0 ± 16.0 g
body weight ([1]; Male, Week 4, 300 μg/kg/day i.m., high nutrition diet, positive control 287.4 ± 17.7): 258.2 ± 18.1 g
body weight ([1]; Male, Week 5, 300 μg/kg/day i.m., high nutrition diet, positive control 299.4 ± 21.2): 268.8 ± 17.7 g
body weight ([1]; Male, Week 6 (injection stopped after week 5), positive control 333.4 ± 27.1): 299.4 ± 21.2 g
body weight ([1]; Male, Week 7 (injection stopped after week 5), positive control 349.2 ± 28.9): 310.4 ± 25.9 g
body weight ([1]; Male, Week 8 (injection stopped after week 5), positive control 374.4 ± 37.2): 337.4 ± 30.6 g

PTTKTYFPHF [CMS001]
serum DHBV DNA titre upon termination of treatment ([2]; 50 μg/kg/day i.p. for 4 weeks, then one week observation): rebounded to a value with no statistical difference from that before treatment
DHBV DNA level (Mean ± Standard Deviation) ([2]; Day 0 (before treatment), CMS001 50 μg/kg/day i.p., lamivudine 50 mg/kg/day oral, saline 26 ± 12): 21 ± 18 10^3 units
DHBV DNA level (Mean ± Standard Deviation) ([2]; Day 7, CMS001 50 μg/kg/day i.p., lamivudine 50 mg/kg/day oral, saline 45 ± 31): 11 ± 13 10^3 units
DHBV DNA level (Mean ± Standard Deviation) ([2]; Day 14, CMS001 50 μg/kg/day i.p., lamivudine 50 mg/kg/day oral, saline 49 ± 23): 20 ± 18 10^3 units
DHBV DNA level (Mean ± Standard Deviation) ([2]; Day 21, CMS001 50 μg/kg/day i.p., lamivudine 50 mg/kg/day oral, saline 102 ± 66): 14 ± 14 10^3 units
DHBV DNA level (Mean ± Standard Deviation) ([2]; Day 28 (end of 4 weeks treatment), CMS001 50 μg/kg/day i.p., lamivudine 50 mg/kg/day oral, saline 60 ± 38): 5 ± 3* 10^3 units
DHBV DNA level (Mean ± Standard Deviation) ([2]; Day 35 (one week after termination of treatment), saline 50 ± 43): 18 ± 16 10^3 units
